From patent publication US10034836B2, “Formulations of guanylate cyclase C agonists and methods of use” (SYNERGY PHARMACEUTICALS, INC., priority 2008, dated 2018)

Columns and labels:
BDF1 mice = test: DSS-induced colitis in BDF-1 mice; assay type: in vivo; conditions: 5% DSS, 80 mg/kg oral gavage daily (positive control)
Protocol: The cGMP pathway mediates the anti-inflammatory effects of cellular molecules such as nitric oxide and heme oxygenase-1. […] The anti-inflammatory effects of the GCC agonist SP-304 were evaluated in a murine model of ulcerative colitis, the DSS-induced colitis model.
Forty eight BDF1 mice were divided into 8 treatment groups (6 mice/group). One group was not exposed to DSS (untreated control) and groups […] were treated with 5% DSS in the drinking water. DSS was refreshed daily. All mice were weighed on day −1, and treated with the test materials beginning on day −1. 4 hrs post dosing on Day 0, DSS was placed in the drinking water of groups 2-8 and DSS remained in the water until the end of the study. The test agents were administered at 9 AM daily until day 7. Animals were treated with a single dose of test agents and the groups were as follows:
All doses were administered by oral gavage using a 0.1 ml dose per 10 g body weight. To avoid cage-to-cage variation, different treatment groups were housed in the same cage and animals were ear punched for identification purposes. Mice were sacrificed on day 7, 4-6 hrs post last dosing. […] All slides were scored in a blinded manner.
Five different sections of the tissue were examined for histopathological scoring and the scores were averaged for each mouse. The histopathology scores in FIG. 17 are expressed as an average of 6 mice.

mice treated with TNBS = test: Stool consistency in TNBS-induced murine model of colitis; assay type: in vivo; conditions: oral administration (FIG. 13)
Source text: The anal administration of trinitrobenzene sulphonic acid (TNBS) is typically used to produce intestinal blockage, resulting in poor stool consistency.

## O=C(O)c1cc(/N=N/c2ccc(S(=O)(=O)Nc3ccccn3)cc2)ccc1O [Sulfasalazine]
BDF1 mice
  severity of inflammation in large intestine (histopathology score): considerably reduced
Mice treated with TNBS
  stool consistency in mice treated with TNBS: restored normal stool consistency
